The source of these data is patent US20240425480A1, “NOVEL PYRIDINE DERIVATIVE COMPOUND AS RON INHIBITOR” (LG CHEM, LTD., priority 2021, published 2024).

One experiment has as its target cMET (Homo sapiens, UniProt P08581). Briefly: Inhibitory activity against MET (cMET), TR-FRET kinase assay. The following applies: TR-FRET enzyme assay. Format: biochemical. The procedure: In addition, in order to measure the enzyme activity inhibition for cMET, the evaluation was performed in the same manner as the enzyme activity inhibition measurement experiment for RON.
Specifically, the compound was prepared to a concentration of 1 mM in 100% DMSO and was diluted 10 times in a stepwise manner through 3-fold dilution. The compound (2 ul) diluted in a stepwise manner was added to a 96-well-plate containing 48 ul of a 1×kinase reaction buffer (50 mM HEPES (pH 7.4), 0.05% BSA, 0.005% Tween-20, 1 mM DTT, 0.5 mM MnCl2, 20 mM MgCl2).
The cMET protein was diluted to a concentration of 263 nM in a cMET storage buffer (50 mM Tris-HCl (pH 7.5), 150 mM NaCl, 0.05% Brij35, 1 mM DTT, 10% Glycerol), and then diluted again to a concentration of 2 nM in a 1×kinase reaction buffer. As a substrate cocktail, a MET-specific substrate mixed solution (5 uM TK peptide, 10 mM ATP) was prepared at a concentration 2 times the final reaction concentration.
(§1) Thereafter, a 384-well-plate was prepared, and 2.5 μl of each of the diluted compounds of Examples was added to a corresponding well of experimental group wells, and 2.5 μl of a 4% DMSO solution was dispensed into high control wells and low control wells.
(§2) Thereafter, 2.5 μL of 2 nM cMET was dispensed into each of the high control wells and the experimental group wells, and 2.5 μL of the 1× kinase reaction buffer was added to the low control wells, and all the wells were centrifuged at room temperature for 40 seconds at 1,000 RPM, and then incubated at room temperature for 20-30 minutes. Then, 5 μL of the substrate cocktail (2×) was dispensed into each well, and all the wells were centrifuged at room temperature for 40 seconds at 1,000 RPM, and then incubated at room temperature for 60 minutes. Thereafter, 5 μL of 90 mM EDTA was added to each well to terminate the reaction, and all the wells were then incubated again at room temperature for 5 minutes. Thereafter, 5 μL of a 4×phosphotyrosine antibody (Perkin Elmer) containing europium was added to each well, and all the wells were then incubated at room temperature for 60 minutes. After the incubation, the 384-well-plate was read with the Vison plate reader. In this case, the excitation wavelength was 340 nm, and the emission wavelength was 620 nm and 665 nm. The pe50 value of each compound of Examples was derived using the GraphPd Prism7 program.

For the next experiment, the target named is RON (Homo sapiens, UniProt Q04912). Briefly: Inhibitory activity against RON, TR-FRET kinase assay. The settings on record: TR-FRET enzyme assay. Format: biochemical. How it is done: In order to measure the inhibitory activity of each of the compounds of Examples against RON, the IC50 of each of the compounds was measured using Time-resolved fluorescence energy transfer (TR-FRET).
Specifically, the compound was prepared to a concentration of 1 mM in 100% DMSO and was diluted 10 times in a stepwise manner through 3-fold dilution. The compound (2 ul) diluted in a stepwise manner was added to a 96-well-plate containing 48 ul of a 1× kinase reaction buffer (50 mM HEPES (pH 7.4), 0.01% Tween-20, 5 mM DTT, 0.5 mM Na3VO4, 2 mM EGTA, 10 mM MgCl2).
The RON protein was diluted to a concentration of 49.3 nM in a RON storage buffer (50 mM Tris-HCl (pH 7.5), 150 mM NaCl, 0.5 mM EDTA, 0.02% Triton X-100), and then diluted again to a concentration of 0.4 nM in a 1×kinase reaction buffer. As a substrate cocktail, a RON-specific substrate mixed solution (40 uM ULight-labeled Poly GT, 100 nM ATP) was prepared at a concentration 2 times the final reaction concentration.
as §1
as §2, with “of 0.4” for “of 2”, “nM RON” for “nM cMET”, “of 30” for “of 90”, “The IC50” for “The pe50”
(In general: In TR-FRET formats the signal depends on donor and acceptor labels being close together.)

Chain of cMET (P08581 25-1390): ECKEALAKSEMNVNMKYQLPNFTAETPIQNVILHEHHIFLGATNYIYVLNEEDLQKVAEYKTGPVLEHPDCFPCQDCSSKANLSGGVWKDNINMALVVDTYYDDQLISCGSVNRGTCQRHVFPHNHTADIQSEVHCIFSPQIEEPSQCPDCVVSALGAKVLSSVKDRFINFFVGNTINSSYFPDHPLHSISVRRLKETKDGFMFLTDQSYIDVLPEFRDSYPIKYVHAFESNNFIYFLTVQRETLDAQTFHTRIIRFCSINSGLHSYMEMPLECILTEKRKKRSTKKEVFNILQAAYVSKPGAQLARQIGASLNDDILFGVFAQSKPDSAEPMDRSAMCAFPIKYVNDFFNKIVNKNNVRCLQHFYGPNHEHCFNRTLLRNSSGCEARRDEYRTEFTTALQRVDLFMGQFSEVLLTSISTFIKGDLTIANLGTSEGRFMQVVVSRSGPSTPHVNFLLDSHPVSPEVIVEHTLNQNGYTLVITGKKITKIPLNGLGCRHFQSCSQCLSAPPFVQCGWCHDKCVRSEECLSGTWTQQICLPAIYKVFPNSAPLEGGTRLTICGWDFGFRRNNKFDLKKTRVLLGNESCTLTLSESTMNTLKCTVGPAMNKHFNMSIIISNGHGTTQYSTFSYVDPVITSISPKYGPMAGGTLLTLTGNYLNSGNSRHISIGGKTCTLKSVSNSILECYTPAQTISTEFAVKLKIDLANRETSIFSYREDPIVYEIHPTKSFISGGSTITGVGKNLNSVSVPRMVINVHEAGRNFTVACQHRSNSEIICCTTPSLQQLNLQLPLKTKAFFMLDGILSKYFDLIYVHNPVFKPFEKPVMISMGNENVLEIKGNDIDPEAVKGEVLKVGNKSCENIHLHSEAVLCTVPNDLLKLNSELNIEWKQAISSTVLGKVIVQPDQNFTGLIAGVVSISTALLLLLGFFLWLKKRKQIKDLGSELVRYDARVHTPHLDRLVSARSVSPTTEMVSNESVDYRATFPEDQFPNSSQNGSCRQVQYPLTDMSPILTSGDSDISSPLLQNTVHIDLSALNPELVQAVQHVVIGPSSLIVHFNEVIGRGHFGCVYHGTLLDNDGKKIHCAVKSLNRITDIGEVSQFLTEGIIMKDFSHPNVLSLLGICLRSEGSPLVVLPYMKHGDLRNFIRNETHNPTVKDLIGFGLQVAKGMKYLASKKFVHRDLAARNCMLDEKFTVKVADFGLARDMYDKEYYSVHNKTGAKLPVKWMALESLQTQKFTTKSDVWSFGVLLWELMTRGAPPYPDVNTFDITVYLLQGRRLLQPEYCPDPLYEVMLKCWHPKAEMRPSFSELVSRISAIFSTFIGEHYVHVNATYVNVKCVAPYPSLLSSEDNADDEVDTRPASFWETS
Chain of RON (Q04912 25-1400, species assumed): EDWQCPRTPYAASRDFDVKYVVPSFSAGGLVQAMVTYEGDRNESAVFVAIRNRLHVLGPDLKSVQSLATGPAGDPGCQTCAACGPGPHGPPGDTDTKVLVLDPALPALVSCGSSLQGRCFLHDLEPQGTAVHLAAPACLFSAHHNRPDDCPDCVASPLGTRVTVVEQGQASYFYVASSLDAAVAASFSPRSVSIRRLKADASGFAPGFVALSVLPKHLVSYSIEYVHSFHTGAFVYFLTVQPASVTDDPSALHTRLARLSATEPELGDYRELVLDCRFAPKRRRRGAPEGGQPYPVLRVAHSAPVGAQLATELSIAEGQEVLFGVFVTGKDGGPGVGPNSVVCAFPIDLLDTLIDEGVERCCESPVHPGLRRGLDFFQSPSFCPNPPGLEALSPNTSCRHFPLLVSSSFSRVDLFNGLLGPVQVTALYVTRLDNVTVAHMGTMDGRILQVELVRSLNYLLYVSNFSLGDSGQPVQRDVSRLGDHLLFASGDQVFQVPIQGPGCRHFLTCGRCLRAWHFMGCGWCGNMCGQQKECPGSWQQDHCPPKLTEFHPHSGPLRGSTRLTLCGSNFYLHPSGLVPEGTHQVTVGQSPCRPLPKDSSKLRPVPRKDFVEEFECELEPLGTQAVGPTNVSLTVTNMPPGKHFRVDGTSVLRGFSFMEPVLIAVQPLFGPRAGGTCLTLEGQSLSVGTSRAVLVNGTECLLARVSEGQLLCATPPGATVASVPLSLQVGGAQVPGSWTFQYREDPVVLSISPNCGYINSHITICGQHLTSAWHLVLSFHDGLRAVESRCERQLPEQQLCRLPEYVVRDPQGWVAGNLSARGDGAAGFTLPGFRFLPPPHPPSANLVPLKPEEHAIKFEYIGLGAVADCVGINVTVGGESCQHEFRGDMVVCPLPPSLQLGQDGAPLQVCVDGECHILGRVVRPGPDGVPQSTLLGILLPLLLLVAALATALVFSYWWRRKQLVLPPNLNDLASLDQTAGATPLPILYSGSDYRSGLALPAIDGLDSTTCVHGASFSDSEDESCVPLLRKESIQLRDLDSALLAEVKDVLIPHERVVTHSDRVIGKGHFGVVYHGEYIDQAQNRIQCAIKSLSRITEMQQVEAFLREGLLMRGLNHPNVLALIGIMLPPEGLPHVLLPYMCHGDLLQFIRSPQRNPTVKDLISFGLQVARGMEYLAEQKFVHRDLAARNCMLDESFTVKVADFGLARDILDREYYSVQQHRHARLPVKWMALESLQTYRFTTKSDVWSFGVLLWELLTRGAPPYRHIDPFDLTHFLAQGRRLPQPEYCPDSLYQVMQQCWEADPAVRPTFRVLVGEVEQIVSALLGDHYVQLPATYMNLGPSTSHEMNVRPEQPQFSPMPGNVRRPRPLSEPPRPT

As to `CCc1c(C(=O)Nc2ccc(Oc3ccnc(N)c3Cl)c(F)c2)cnn1-c1cncnc1` [Example 1, N-(4-((2-amino-3-chloropyridin-4-yl)oxy)-3-fluorophenyl)-5-ethyl-1-(pyrimidin-5-yl)-1H-pyrazole-4-carboxamide], the 50% inhibitory concentration (IC50) (usually the concentration needed to halve the response being measured) on cMET lay in the range of 500 to 5000 nM; at RON, 50 to 500 nM.
Taken in the same sequence, the figures for `Cc1cccc(-n2ncc(C(=O)Nc3ccc(Oc4ccnc(N)c4Cl)c(F)c3)c2C(F)(F)F)n1` [Example 17, N-(4-((2-amino-3-chloropyridin-4-yl)oxy)-3-fluorophenyl)-1-(6-methylpyridin-2-yl)-5-(trifluoromethyl)-1H-pyrazole-4-carboxamide] were 500 to 5000 nM and 50 to 500 nM.
As to `CC(C)Nc1c(Oc2ccc(NC(=O)c3cnn(-c4ncccc4F)c3C(F)(F)F)cc2F)ccnc1N` [Example 34, N-(4-((2-amino-3-(isopropylamino)pyridin-4-yl)oxy)-3-fluorophenyl)-1-(3-fluoropyridin-2-yl)-5-(trifluoromethyl)-1H-pyrazole-4-carboxamide], the IC50 against cMET is greater than 5000 nM; against RON it was less than 50 nM.
For `CCc1c(C(=O)Nc2ccc(Oc3ccnc(N)c3Cl)c(F)c2)cnn1-c1ccncc1` [Example 4, N-(4-((2-amino-3-chloropyridin-4-yl)oxy)-3-fluorophenyl)-5-ethyl-1-(pyridin-4-yl)-1H-pyrazole-4-carboxamide], in that order: greater than 5000 nM and 500 to 5000 nM.
For `Nc1nccc(Oc2ccc(NC(=O)c3cnn(-c4ncccc4Cl)c3C(F)(F)F)cc2F)c1Cl` [Example 10, N-(4-((2-amino-3-chloropyridin-4-yl)oxy)-3-fluorophenyl)-1-(3-chloropyridin-2-yl)-5-(trifluoromethyl)-1H-pyrazole-4-carboxamide], in that order: 500 to 5000 nM and less than 50 nM.
For `Nc1ncnc(Oc2ccc(NC(=O)c3cnn(-c4cc(F)ccn4)c3C(F)(F)F)cc2F)c1Cl` [Example 63, N-[4-(6-amino-5-chloro-pyrimidin-4-yl)oxy-3-fluoro-phenyl]-1-(4-fluoro-2-pyridyl)-5-(trifluoromethyl)pyrazole-4-carboxamide], in that order: greater than 5000 nM and 50 to 500 nM.
With `Nc1nccc(Oc2ccc(NC(=O)c3cnn(-c4ccncc4)c3C(F)(F)F)cc2F)c1Cl` [Example 19, N-(4-((2-amino-3-chloropyridin-4-yl)oxy)-3-fluorophenyl)-1-(pyridin-4-yl)-5-(trifluoromethyl)-1H-pyrazole-4-carboxamide], the values for the IC50 at cMET and at RON were 500 to 5000 nM and 50 to 500 nM, respectively.
For `COc1cccnc1-n1ncc(C(=O)Nc2ccc(Oc3ncnc(N)c3Cl)c(F)c2)c1C(F)(F)F` [Example 54, N-[4-(6-amino-5-chloro-pyrimidin-4-yl)oxy-3-fluoro-phenyl]-1-(3-methoxy-2-pyridyl)-5-(trifluoromethyl)pyrazole-4-carboxamide], the IC50 was greater than 5000 nM on cMET and 50 to 500 nM at RON.
Taken in the same sequence, the figures for `Nc1ncnc(Oc2ccc(NC(=O)c3cnn(-c4ccncn4)c3C(F)(F)F)cc2F)c1Cl` [Example 61, N-[4-(6-amino-5-chloro-pyrimidin-4-yl)oxy-3-fluoro-phenyl]-1-pyrimidin-4-yl-5-(trifluoromethyl)pyrazole-4-carboxamide] were greater than 5000 nM and 500 to 5000 nM.
As to `Cc1cccnc1-n1ncc(C(=O)Nc2ccc(Oc3ncnc(N)c3Cl)c(F)c2)c1C(F)(F)F` [Example 46, N-[4-(6-amino-5-chloro-pyrimidin-4-yl)oxy-3-fluoro-phenyl]-1-(3-methyl-2-pyridyl)-5-(trifluoromethyl)pyrazole-4-carboxamide], the IC50 against cMET was greater than 5000 nM; against RON, 50 to 500 nM.
For `Nc1ncnc(Oc2ccc(NC(=O)c3cnn(-c4ccccn4)c3C(F)(F)F)cc2F)c1Cl` [Example 43, N-(4-((6-amino-5-chloropyrimidin-4-yl)oxy)-3-fluorophenyl)-1-(pyridin-2-yl)-5-(trifluoromethyl)-1H-pyrazole-4-carboxamide], in that order: greater than 5000 nM and less than 50 nM.
`Nc1nccc(Oc2ccc(NC(=O)c3cnn(-c4ncc(O)cn4)c3C(F)(F)F)cc2F)c1Cl` [Example 27, N-(4-((2-amino-3-chloropyridin-4-yl)oxy)-3-fluorophenyl)-1-(5-hydroxypyrimidin-2-yl)-5-(trifluoromethyl)-1H-pyrazole-4-carboxamide]: the IC50 on cMET is greater than 5000 nM; against RON it was 50 to 500 nM.
Consider `CCc1c(C(=O)Nc2ccc(Oc3ccnc(N)c3I)c(F)c2)cnn1-c1ncccc1F` [Example 37, N-(4-((2-amino-3-iodopyridin-4-yl)oxy)-3-fluorophenyl)-5-ethyl-1-(3-fluoropyridin-2-yl)-1H-pyrazole-4-carboxamide], for which the figures for the IC50 against cMET and at RON were 500 to 5000 nM and less than 50 nM, respectively.
As for `Nc1nccc(Oc2ccc(NC(=O)c3cnn(-c4ncccc4F)c3C(F)(F)F)c(F)c2)c1Cl` [Example 32, N-(4-((2-amino-3-chloropyridin-4-yl)oxy)-2-fluorophenyl)-1-(3-fluoropyridin-2-yl)-5-(trifluoromethyl)-1H-pyrazole-4-carboxamide], the IC50 at cMET is 500 to 5000 nM; at RON, less than 50 nM.
For `O=C(Nc1ccc(Oc2ncnc(NC3CC3)c2Cl)c(F)c1)c1cnn(-c2ncccc2F)c1C(F)(F)F` [Example 65, N-[4-[5-chloro-6-(cyclopropylamino)pyrimidin-4-yl]oxy-3-fluoro-phenyl]-1-(3-fluoro-2-pyridyl)-5-(trifluoromethyl)pyrazole-4-carboxamide], in that order: greater than 5000 nM and 500 to 5000 nM.
Turning to `Cc1cccnc1-n1ncc(C(=O)Nc2ccc(Oc3ccnc(N)c3Cl)c(F)c2)c1C(F)(F)F` [Example 9, N-(4-((2-amino-3-chloropyridin-4-yl)oxy)-3-fluorophenyl)-1-(3-methylpyridin-2-yl)-5-(trifluoromethyl)-1H-pyrazole-4-carboxamide], the values for the IC50 at cMET and against RON were 500 to 5000 nM and less than 50 nM, respectively.
With `Nc1nccc(Oc2ccc(NC(=O)c3cnn(-c4cccnc4)c3C(F)(F)F)cc2F)c1Cl` [Example 18, N-(4-((2-amino-3-chloropyridin-4-yl)oxy)-3-fluorophenyl)-1-(pyridin-3-yl)-5-(trifluoromethyl)-1H-pyrazole-4-carboxamide], the IC50 on cMET is 500 to 5000 nM; on RON, 50 to 500 nM.
Taken in the same sequence, the figures for `Cc1csc(-n2ncc(C(=O)Nc3ccc(Oc4ccnc(N)c4Cl)c(F)c3)c2C(F)(F)F)n1` [Example 40, N-(4-((2-amino-3-chloropyridin-4-yl)oxy)-3-fluorophenyl)-1-(4-methylthiazol-2-yl)-5-(trifluoromethyl)-1H-pyrazole-4-carboxamide] were greater than 5000 nM and 50 to 500 nM.
Taken in the same sequence, the figures for `CCc1c(C(=O)Nc2ccc(Oc3ccnc(N)c3Cl)c(F)c2)cnn1-c1ncccc1F` [Example 35, N-(4-((2-amino-3-chloropyridin-4-yl)oxy)-3-fluorophenyl)-5-ethyl-1-(3-fluoropyridin-2-yl)-1H-pyrazole-4-carboxamide] were greater than 5000 nM and less than 50 nM.
